The record followed here is patent publication US11684610B2, “Pharmaceutical composition including 1,2-naphthoquinone derivative compound for prevention or treatment of solid cancers or blood cancers” (YUNGJIN PHARM. CO., LTD., priority 2018, dated 2023).

Common to all, as to assay type: cell-based, human
One experiment concerns A549 (lung carcinoma). In words: Cell viability in solid cancer cells, WST assay, A549. Conditions: A549, 1 to 30 μM, 6 hours. An excerpt:
(§1) To confirm the possibility of use as a therapeutic agent for solid cancer, A549 cell line obtained from a […] with lung carcinoma, Hela cell line obtained from a person with cervix adenocarcinoma, HepG2 cell line obtained from a child with hepatocellular carcinoma, MCF7 cell line obtained from a person with breast adenocarcinoma, and Beas-2B cell line obtained from a normal lung for comparison with solid cancer cell line were used.
(§2) The A549 (lung carcinoma), Hela (cervix adenocarcinoma), HepG2 (hepatocellular carcinoma), MCF7 (breast carcinoma), and Beas-2B (normal lung) cell lines were used in DMEM medium containing 10% FBS, subcultured once every 2 days in an incubator under conditions of 37° C. and 5% CO2 and used in the experiment.
(§3) A549 (lung carcinoma), Hela (cervix adenocarcinoma), HepG2 (hepatocellular carcinoma), MCF7 (breast carcinoma), and Beas-2B (normal lung) cells cultured in Example 6-1 were inoculated into a 96-well plated at 1×10^4 cells/well, and then for the stabilization of cells, the cells were cultured in an incubator at 37° C. and 5% CO2 for 16 hours or more. Subsequently, among the compounds synthesized in Example 1, the compounds 1, 10 and 72 were treated at a concentration of 1 to 30 μM, and then cultured for 6 hours. At this time, DMSO and β-lapachone were used as the control group. After 4 hours of incubation, 10 μl of WST solution was added to each cell, the reaction was carried out for 2 hours, and the absorbance was measured at 450 nm with a multi-scan machine. The cell viabilities of A549 (lung carcinoma), Hela (cervix adenocarcinoma), HepG2 (hepatocellular carcinoma) and MCF7 (breast carcinoma) cells are shown in Table 4 and FIG. 6 below.

Experiment [1] has as its system Hela (cervix adenocarcinoma). In words: Cell viability in solid cancer cells, WST assay, Hela. The settings on record: 1 to 30 μM, 6 hours.
Excerpt: as §1, §2, §3

In experiment [2] the test system is HepG2 (hepatocellular carcinoma). Kind of experiment: Cell viability in solid cancer cells, WST assay, HepG2. Conditions: HepG2, 1 to 30 μM, 6 hours.
Excerpt: as §1, §2, §3

For a further experiment, the system named is MCF7 (breast carcinoma). In words: Cell viability in solid cancer cells, WST assay, MCF7. The settings on record: MCF7, 1 to 30 μM, 6 hours.
Excerpt: as §1, §2, §3

Another experiment concerns K562 cells. In words: Cell viability in chronic leukemia K562 cells, WST assay. Conditions: 0.1 to 5 μM. As to the method:
K562 cells obtained from a person with chronic myeloid leukemia were cultured in an incubator under conditions of 37° C. and 5% CO2 using RPMI medium containing 10% FBS (fetal bovine serum), and subcultured once every two days and used in the experiment.
The K562 cells cultured in Example 4-1 were inoculated into a 96-well plate at 1×10^5 cells/well, and then, for the stabilization of cells, the cells were cultured in an incubator at 37° C. and 5% CO2 for 16 hours or more. Subsequently, among the compounds synthesized in Example 1, the compounds 1, 10, and 72 and 192 were treated at a concentration of 0.1 to 5 μM and then cultured for 4 hours. At this time, DMSO was used as a control group. After 4 hours of incubation, 10 μl of WST solution was added to each cell and then reacted for 2 hours.

Experiment [3] deals with A549, Hela, HepG2, MCF7 and Beas-2B cells. Kind of experiment: Cell viability WST assay, all solid cancer and normal lung lines taken together. Conditions: 6 hours.
Excerpt: as §1, §2, §3

The next experiment has as its system KG1α cells. Kind of experiment: Cell viability in KG1α cells, WST assay. The settings on record: 0.1 to 3 μM. The text has this:
The constructed cell lines were also diverse. Thus, in order to confirm the applicability to a wide range of therapeutic agents that are not therapeutic agents for specific types of acute leukemia, in the present invention, KG1α cells constructed by selecting only cells having a stem cell phenotype from KG1 cells, which are cell lines obtained from a person with acute myelogenous leukemia, were used. HL60 cells, which are cell lines obtained from a person with acute promyelocytic leukemia, and U937 cells, which are cell lines obtained from a person with histiocytic lymphoma, were used.
KG1α and HL60 cells were cultured in IMDM medium containing 20% FBS (fetal bovine serum), and U937 cells were cultured in RPMI 1640 medium containing 10% FBS. All cells were cultured in an incubator under conditions of 37° C. and 5% CO2, and subcultured once every 2 or 3 days and used in the experiment.
KG1α cells are cells resistant to idarubicin and cytarabine, which are the therapeutic agents for acute myeloid leukemia, and are refractory AML cells. KG1α cells cultured in Example 2-1 were cultured into a 96-well plate at 1×10^5 cells/well, and then cultured in an incubator at 37° C. and 5% CO2 for 16 hours or more for the stabilization of cells. […] At this time, DMSO was used as a control group. After 24 hours, each cell was treated with 10 μl of WST solution, reacted for 2 hours, and then absorbance was measured at 450 nm with a multi-scan machine, and the cell viability of KG1α cells was confirmed as shown in Table 4 below.

On to `CC1(C)CCC2=C(O1)c1ccccc1C(=O)C2=O` [beta-rapacon, β-lapachone, reference compound], for which the IC50 stood at 5 µM in the experiment on A549 (lung carcinoma), 4.8 µM in experiment [1], 12.3 µM in experiment [2] and 13.2 µM with MCF7 (breast carcinoma).
As to `CCc1nc2c([nH]1)C(=O)C(=O)c1ccccc1-2` [compound 10], the IC50 was found to be 5.5 µM in the experiment on A549 (lung carcinoma) (Homo sapiens); 0.9 µM in the experiment on K562 cells (Homo sapiens, K562, 4 h); 7.7 µM in experiment [1] (Homo sapiens); 12.1 µM in experiment [2] (Homo sapiens); 14.1 µM in the experiment with MCF7 (breast carcinoma) (Homo sapiens); 0.5 µM in the experiment with KG1α cells (24 hours). Moreover, in the experiment on KG1α cells (Homo sapiens, KG-1, 24 h), the IC50 was 0.5 to 1 µM. Further, in experiment [3], the “killing effect compared with β-lapachone” value was “killing effect similar to β-lapachone”.
For the compound `O=C1C(=O)c2[nH]c(C3CCCO3)nc2-c2ccccc21` (stereo not drawn) [compound 72], the IC50 in the experiment on A549 (lung carcinoma) (Homo sapiens) is 6.5 µM; in the experiment with K562 cells (4 hours) it was 1.4 µM; in the experiment on K562 cells (Homo sapiens, K562, 4 h) it was 1 to 2 µM; in experiment [1] (Homo sapiens) it was 9.1 µM; in experiment [2] (Homo sapiens) it was 12.6 µM; with MCF7 (breast carcinoma) (Homo sapiens), 12.5 µM. The IC50 in the experiment with KG1α cells (24 hours) is 0.7 µM; with KG1α cells (Homo sapiens, KG-1, 24 h), 0.5 to 1 µM. Besides, the “killing effect compared with β-lapachone” value in experiment [3] is “killing effect similar to β-lapachone”.

One may read the IC50 as the concentration that gives 50% inhibition. Read a low IC50 as greater potency in that assay.
